Assays:
Type in all cases: cell-based
MYC protein [1] = test: Western blot of MYC protein in human cancer cell lines; settings: about 1 μM, 2-day incubation, e.g., A549 or HepG2, GAPDH loading control, vs DMSO
Protocol: The level of reduction of MYC protein following treatment with test compounds is also assessed by Western blot according to the following protocol. The human cancer cell lines (e.g., A549 or HepG2) are seeded at 20,000 cells per well in a 96-well plate. After 1 day, the cells are treated with test compounds at a final concentration of about 1 μM. After a 2-day incubation period, the supernatant is removed from the wells and RIPA buffer is added to create cell lysates. The lysates are analyzed by Western blot and probed with a MYC-specific antibody (e.g., Proteintech 10828-1-AP) together with a GAPDH-specific antibody (e.g., Proteintech 10494-1-AP) to serve as loading control. The intensities of Western blot bands are quantified by FIJI (Image J). The relative expression value of MYC following treatment with a test compound is calculated by dividing the intensity of the MYC band of the sample with the intensity of its own GAPDH band. The value so obtained is presented as a percentage of that of the no-compound, solvent only (DMSO)-treated sample. A lower percentage of MYC protein in a sample with respect to the DMSO-treated sample indicates greater percentage reduction in MYC protein level due to the test compound, and vice versa.

HepG2 [2] = test: CCK-8 cell viability assay, HepG2; settings: Homo sapiens; CCK-8, HepG2, 2-day or 3-day incubation, cytotoxic effect
Protocol: The effect of test compounds on cell viability is determined using the CCK-8 assay kit (Dojindo CK04-1000) according to the following protocol. The human cancer cell lines (e.g., A549, HepG2, JeKo-1, MDA-MB-231, etc.) and non-cancer human cell lines (e.g., HEK-293, HaCaT, etc.), are seeded at 20,000 cells per well in a 96-well plate. After 1 day, the cells are treated with test compounds at various final concentrations (e.g., 10 nM, 31.6 nM, 100 nM, 316 nM, 1 μM, 3.16 μM, 10 μM, 20 μM, etc.). After a 2-day or 3-day incubation period, 10 μL of CCK-8 solution, which contains the WST-8 dye, is added to each well according to the kit manufacturer's protocol. After incubation for 1-4 hours, the absorbance at 450 nm is measured using a microplate reader. The absorbance at 450 nm measures the amount of WST-8 that is reduced to WST-8 formazan by cellular dehydrogenases, which is directly proportional to the number of living cells. The cytotoxic effect of test compounds at different concentrations is calculated by subtracting from 1 the ratio of absorbance of the compound-treated sample at 450 nm to that of the no-compound, solvent only (DMSO)-treated sample. […] The IC50 values for the cytotoxic effect of each test compound in A549, HepG2, JeKo-1, and/or MDA-MB-231 cells are determined by plotting a dose-response curve to calculate the concentration of test compound that produces half of the maximum cytotoxic effect.

MYC protein [3] = test: MYC HTRF assay, MYC protein level in human cell lines; settings: about 20 μM, 2-day incubation, human cell lines (e.g., A549, HepG2), vs DMSO-treated sample
Protocol: The MYC homogenous time-resolved fluorescence (HTRF) assay kit (CisBio/Perkin Elmer 63ADK053PEG) is used to quantify the level of MYC protein in human cell lines (e.g., A549, HepG2) following treatment with test compounds, according to the following protocol. Human cells cultured in DMEM-10% FBS media are seeded at 20,000 cells per well in a 96-well plate. After 1 day, the cells are treated with test compounds at a final concentration of about 20 μM. After a 2-day incubation period, the supernatant is removed from the wells and the HTRF assay is carried out according to the kit manufacturer's protocol. In brief, lysis buffer #4 is added to create cell lysates. 10 μL of cell lysate is added to 10 μL of premixed antibody solution (anti-human My c-Eu cryptate antibody and anti-human Myc-d2 antibody) prepared in detection buffer #3 in a 384-well low-volume white-walled plated. After 3 h of incubation, fluorescence readings are taken at the emission wavelengths of donor and acceptor fluorophores (620 nm and 665 nm respectively) using a HTRF-compatible plate reader. The ratio of acceptor and donor fluorescence emission signals for each sample is calculated by dividing the fluorescence signal at 665 nm by the signal at 620 nm, and further normalized by dividing with the concentration of total protein in that sample as determined by the BCA assay. The values so obtained are presented as a percentage of that of the no-compound, solvent only (DMSO)-treated samples. A lower percentage of MYC protein in a sample with respect to the DMSO-treated sample indicates greater percentage reduction in MYC protein level due to the test compound, and vice versa.

MYC RNA = test: RT-qPCR of MYC RNA in human cancer cell lines; settings: 24 h, about 1 μM, 1-day incubation, e.g., A549, HepG2, beta-actin normalized, vs DMSO, read-out: % reduction of MYC RNA
Protocol: The level of reduction of MYC RNA following treatment with test compounds is assessed using RT-qPCR according to the following protocol. The human cancer cell lines (e.g., A549, HepG2) are seeded at 20,000 cells per well in a 96-well plate. After 1 day, the cells are treated with test compounds at a final concentration of about 1 μM. After a 1-day incubation period, the supernatant is removed from the wells and lysis solution from the Cells-to-CT 1-Step Power SYBR Green Kit (Invitrogen A25599) is added to create cell lysates, according to the kit manufacturer's protocol. The kit manufacturer's protocol is then followed to perform RT-qPCR for each sample using a pair of MYC-specific primers (e.g., SEQ ID NO: 4 and SEQ ID NO: 5) to detect MYC RNA, as well as a pair of beta-actin-specific primers (e.g., SEQ ID NO: 6 and SEQ ID NO: 7) to detect beta-actin RNA, which serves as a loading control. The relative expression levels of MYC and beta-actin RNAs are calculated using a standard curve generated from a dilution series of untreated cell lysates. The normalized level of MYC RNA following treatment with a test compound is calculated by dividing the relative expression level of MYC in the sample by the relative expression level of beta actin in the same sample. The value so obtained is presented as a percentage of that of the no-compound, solvent only (DMSO)-treated sample. A lower percentage of MYC RNA in a sample with respect to the DMSO-treated sample indicates greater percentage reduction in MYC RNA levels due to the test compound, and vice versa.

A549 = test: CCK-8 cell viability assay, A549; settings: Homo sapiens; CCK-8, A549, 2-day or 3-day incubation, cytotoxic effect
Protocol: The effect of test compounds on cell viability is determined using the CCK-8 assay kit (Dojindo CK04-1000) according to the following protocol. The human cancer cell lines (e.g., A549, HepG2, JeKo-1, MDA-MB-231, etc.) and non-cancer human cell lines (e.g., HEK-293, HaCaT, etc.), are seeded at 20,000 cells per well in a 96-well plate. After 1 day, the cells are treated with test compounds at various final concentrations (e.g., 10 nM, 31.6 nM, 100 nM, 316 nM, 1 μM, 3.16 μM, 10 μM, 20 μM, etc.). After a 2-day or 3-day incubation period, 10 μL of CCK-8 solution, which contains the WST-8 dye, is added to each well according to the kit manufacturer's protocol. After incubation for 1-4 hours, the absorbance at 450 nm is measured using a microplate reader. The absorbance at 450 nm measures the amount of WST-8 that is reduced to WST-8 formazan by cellular dehydrogenases, which is directly proportional to the number of living cells. The cytotoxic effect of test compounds at different concentrations is calculated by subtracting from 1 the ratio of absorbance of the compound-treated sample at 450 nm to that of the no-compound, solvent only (DMSO)-treated sample. […]

JeKo-1 = test: CCK-8 cell viability assay, JeKo-1; settings: Homo sapiens; CCK-8, JeKo-1, 2-day or 3-day incubation, cytotoxic effect
Protocol: (§1) The effect of test compounds on cell viability is determined using the CCK-8 assay kit (Dojindo CK04-1000) according to the following protocol. The human cancer cell lines (e.g., A549, HepG2, JeKo-1, MDA-MB-231, etc.) and non-cancer human cell lines (e.g., HEK-293, HaCaT, etc.), are seeded at 20,000 cells per well in a 96-well plate. After 1 day, the cells are treated with test compounds at various final concentrations (e.g., 10 nM, 31.6 nM, 100 nM, 316 nM, 1 μM, 3.16 μM, 10 μM, 20 μM, etc.). After a 2-day or 3-day incubation period, 10 μL of CCK-8 solution, which contains the WST-8 dye, is added to each well according to the kit manufacturer's protocol. After incubation for 1-4 hours, the absorbance at 450 nm is measured using a microplate reader. The absorbance at 450 nm measures the amount of WST-8 that is reduced to WST-8 formazan by cellular dehydrogenases, which is directly proportional to the number of living cells. The cytotoxic effect of test compounds at different concentrations is calculated by subtracting from 1 the ratio of absorbance of the compound-treated sample at 450 nm to that of the no-compound, solvent only (DMSO)-treated sample. A higher number indicates a greater cytotoxic effect of the test compound on cells (corresponding to a greater reduction in cellular dehydrogenase activity), and vice versa. The IC50 values for the cytotoxic effect of each test compound in A549, HepG2, JeKo-1, and/or MDA-MB-231 cells are determined by plotting a dose-response curve to calculate the concentration of test compound that produces half of the maximum cytotoxic effect. The cytotoxic effect and IC50 of test compounds are also measured in a non-cancer human cell line (e.g., HEK-293, and/or HaCaT) as a proxy for healthy cells to determine the therapeutic window of the test compounds (i.e., the concentration range at which the test compounds selectively kill cancer cells but not healthy cells). The therapeutic index of a test compound is defined herein as its IC50 in HEK-293 cells divided by its IC50 in HepG2 cells.

MDA-MB-231 = test: CCK-8 cell viability assay, MDA-MB-231; settings: Homo sapiens; CCK-8, MDA-MB-231, 2-day or 3-day incubation, cytotoxic effect
Protocol: as §1

HepG2 [4] = test: CellTiter-Glo 2.0 cell viability assay, HepG2; settings: Homo sapiens, 48 h; CellTiter-Glo 2.0, HepG2, 2-day incubation
Protocol: (§2) The effect of test compounds on cell viability is also determined using the CellTiter-Glo 2.0 assay kit (Promega G9241) according to the following protocol. The human cancer cell line (e.g., HepG2) and a non-cancer human cell line (e.g., HEK-293), are seeded at 20,000 cells per well in a 96-well plate. After 1 day, the cells are treated with test compounds at various concentrations (e.g., 10 nM, 31.6 nM, 100 nM, 316 nM, 1 μM, 3.16 μM, 10 μM, 20 μM, etc.). After a 2-day incubation period, the CellTiter-Glo 2.0 assay is performed according to the kit manufacturer's protocol. […] The contents are mixed for 2 minutes on an orbital shaker to induce cell lysis, and incubated for 10 minutes at room temperature, following which the luminescent signal is measured using a microplate reader. […] The cytotoxic effect of test compounds at different concentrations is calculated by subtracting from 1 the ratio of the luminescence signal of the compound-treated sample to that of the no-compound, solvent only (DMSO)-treated sample. […] The IC50 values for the cytotoxic effect of each test compound in HepG2 cells are determined by plotting a dose-response curve to calculate the concentration of test compound that produces half of the maximum cytotoxic effect. […]

HEK-293 [5] = test: CellTiter-Glo 2.0 cell viability assay, HEK-293; settings: Homo sapiens, HEK293, 48 h; CellTiter-Glo 2.0, HEK-293, 2-day incubation
Protocol: as §2

HEK-293 [6] = test: ApoTox-Glo Triplex assay (live-dead ratio), HEK-293; settings: Homo sapiens, HEK293, 48 h, HEK-293, 2-day incubation
Protocol: The effects of test compounds on cell viability and apoptosis are determined using the ApoTox-Glo Triplex assay kit (Promega G6320) according to the following protocol. The human cancer cell line (e.g., HepG2) and a non-cancer human cell line (e.g., HEK-293), are seeded at 20,000 cells per well in a 96-well plate. After 1 day, the cells are treated with test compounds at various final concentrations (e.g., 10 nM, 31.6 nM, 100 nM, 316 nM, 1 μM, 3.16 μM, 10 μM, 20 μM, etc.). After a 2-day incubation period, the ApoTox-Glo Triplex assay is performed according to the kit manufacturer's protocol. […] After incubation for 30 minutes at 37° C., the fluorescence signal is measured at two wavelength sets (400Ex/505Em) and (485Ex/520Em) to assess live-cell protease activity and dead-cell protease activity respectively. […] After incubation for 30 minutes at room temperature, the luminescent signal is measured using a microplate reader. […]
The cytotoxic effect of test compounds according to the ApoTox-Glo Triplex assay is calculated as follows. The live-dead ratio is calculated by dividing the fluorescence signal for live-cell protease activity with the fluorescence signal for dead-cell protease activity. […]

SMILES	% reduction of MYC protein (MYC protein [1]) [%]	IC50 (HepG2 [2]) [µM]	inhibition at 1 µM (MYC RNA) [%]	further results
Cc1nc(N2CC(n3nc(-c4ccncc4)ccc3=O)C2)c2cnn(C)c2n1 [2-(1-(1,6-dimethyl-1H-pyrazolo[3,4-d]pyrimidin-4-yl)azetidin-3-yl)-6-(pyridin-4-yl)pyridazin-3(2H)-one]	19			
Cc1cncc(N2CCC(Cn3nc(-n4cncn4)ccc3=O)CC2)n1 [2-((1-(6-methylpyrazin-2-yl)piperidin-4-yl)methyl)-6-(1H-1,2,4-triazol-1-yl)pyridazin-3(2H)-one]		11.2		
O=c1ccc(-n2cccn2)nn1CC1CCN(c2ncnc3cc(F)ccc23)CC1 [2-((1-(7-fluoroquinazolin-4-yl)piperidin-4-yl)methyl)-6-(1H-pyrazol-1-yl)pyridazin-3(2H)-one]			12	% reduction of MYC protein (MYC protein [3]): 74%
O=c1ccc(-c2ccncc2)nn1CC1CN(c2ncnc3[nH]cnc23)C1 [2-((1-(9H-purin-6-yl)azetidin-3-yl)methyl)-6-(pyridin-4-yl)pyridazin-3(2H)-one]		6		
Cc1nc(C)c(-c2ccc(=O)n(CC3CCN(c4ncnc5[nH]cnc45)CC3)n2)s1 [2-((1-(9H-purin-6-yl)piperidin-4-yl)methyl)-6-(2,4-dimethylthiazol-5-yl)pyridazin-3(2H)-one]			1	% reduction of MYC protein (MYC protein [3]): 17%
O=c1ccc(-n2cncn2)nn1CC1CCN(c2ccc3nnc(C(F)(F)F)n3n2)CC1 [6-(1H-1,2,4-triazol-1-yl)-2-((1-(3-(trifluoromethyl)-[1,2,4]triazolo[4,3-b]pyridazin-6-yl)piperidin-4-yl)methyl)pyridazin-3(2H)-one]	29	5.7	20	
O=c1ccc(-n2cccn2)nn1CC1CCN(c2ccc3nnc(C(F)(F)F)n3n2)CC1 [6-(1H-pyrazol-1-yl)-2-((1-(3-(trifluoromethyl)-[1,2,4]triazolo[4,3-b]pyridazin-6-yl)piperidin-4-yl)methyl)pyridazin-3(2H)-one]	33	18.5	19	
Cc1nc(C)c(-c2ccc(=O)n(CC3CCN(c4ncnc5ncccc45)CC3(F)F)n2)s1 (stereo not shown) [6-(2,4-dimethyl-1,3-thiazol-5-yl)-2-(3,3-difluoro-1-pyrido[2,3-d]pyrimidin-4-ylpiperidin-4-yl)methylpyridazin-3-one]		0.3		IC50 (A549): 1.8 µM; IC50 (JeKo-1): 0.2 µM; IC50 (MDA-MB-231): 1 µM
Cc1nc(C)c(-c2ccc(=O)n(CC3CCN(c4ncnc5ncccc45)CC3F)n2)s1 (stereo not shown) [6-(2,4-dimethyl-1,3-thiazol-5-yl)-2-(3-fluoro-1-pyrido[2,3-d]pyrimidin-4-ylpiperidin-4-yl)methylpyridazin-3-one]		0.5		IC50 (JeKo-1): 0.3 µM; IC50 (MDA-MB-231): 1.1 µM
Cc1nc(N2CCC(Cn3nc(-c4sc(C)nc4C)ccc3=O)CC2)c2ccncc2n1 [6-(2,4-dimethylthiazol-5-yl)-2-((1-(2-methylpyrido[3,4-d]pyrimidin-4-yl)piperidin-4-yl)methyl)pyridazin-3(2H)-one]			5	% reduction of MYC protein (MYC protein [3]): 16%
Cc1cc(N2CCC(Cn3nc(-c4sc(C)nc4C)ccc3=O)CC2)ncn1 [6-(2,4-dimethylthiazol-5-yl)-2-((1-(6-methylpyrimidin-4-yl)piperidin-4-yl)methyl)pyridazin-3(2H)-one]			19	% reduction of MYC protein (MYC protein [3]): 19%
Cc1cc(C)n(-c2ccc(=O)n(C3CCN(c4nc5cccnc5n4C)CC3)n2)n1 [6-(3,5-dimethyl-1H-pyrazol-1-yl)-2-(1-(3-methyl-3H-imidazo[4,5-b]pyridin-2-yl)piperidin-4-yl)pyridazin-3(2H)-one]	24	5.3		
Cc1cc(C)n(-c2ccc(=O)n(CC3CN(c4ccc5nnc(C)n5n4)C3)n2)n1 [6-(3,5-dimethyl-1H-pyrazol-1-yl)-2-((1-(3-methyl-[1,2,4]triazolo[4,3-b]pyridazin-6-yl)azetidin-3-yl)methyl)pyridazin-3(2H)-one]	48		4	
CC(=O)O[C@H]1C(=O)[C@@]2(C)[C@H]([C@H](OC(=O)c3ccccc3)[C@]3(O)C[C@H](OC(=O)[C@H](O)[C@@H](NC(=O)c4ccccc4)c4ccccc4)C(C)=C1C3(C)C)[C@]1(OC(C)=O)CO[C@@H]1C[C@@H]2O [paclitaxel, reference compound]				IC50 (HepG2 [4]): 7.5 µM; IC50 (HEK-293 [5]): 27 µM; IC50 (HEK-293 [6]): 6.9 µM

From US20250368623A1, “PYRIDAZINONE-DERIVED COMPOUNDS FOR THE MODULATION OF MYC AND FOR MEDICAL USES” (GENETIC INTELLIGENCE, INC, priority 2022, published 2025)
